Measured values as given in patent US20220193030A1, “USE OF GINKGO TERPENE LACTONE IN PREPARING DRUG FOR PREVENTING AND/OR TREATING GUILLAIN-BARRE-STROHL SYNDROME” (CHENGDU BAIYU PHARMACEUTICAL CO., LTD., priority 2019, published 2022).
Marks after values point to notes of the source that are not given here.

How the values were obtained:
[1] = test system: IL-12; assay: mRNA level of IL-12 in sciatic nerve tissue of EAN model rabbits (RT-PCR); assay type: in vivo, big-ear white rabbits; conditions: 14th day after modeling, ginkgolide groups 4.5 mg/kg intragastric 2 times a day, positive control 400 mg/kg·d i.p. 5 days
Procedure: (§1) 21 experimental groups, 8 rabbits in each group.
(§2) Positive control group: rabbit immune globulin, 400 mg/kg·d, intraperitoneal injection, for 5 consecutive days
(§3) The ginkgolide groups are set the same as Test example 1, i.e., include the ginkgolide A group to the ginkgolide K group (GA group to GK group), the bilobalide group (BB group) and the ginkgolide I group to the ginkgolide XI group, 18 groups in total. Ginkgolide used in each group has the same monomeric composition and ratio as those of Test example 1, but only differs in that the ginkgolide groups all use the same medicine administration dosage, i.e., 4.5 mg/kg.
(§4) Intragastric administration, 2 times a day. Medicines were dissolved in accessories (glycerin:ethanol=6:4 V/V) to reach 5 mg/ml, and then were configured to reach corresponding concentrations by using sterilized drinking water.
(§5) EAN rabbit modeling: a certain amount of bovine sciatic nerve myelin basic protein and an isopyknic complete Freund's adjuvant were taken, shaken up by using a test tube oscillator, sufficiently mixed, and then subcutaneously injected into a back of each rabbit at multiple points.
(§6) Anesthesia was performed on the 14th day after modeling, to take sciatic nerve tissue of rabbits, and total RNA was extracted by a Trizol method. Detection was performed by a RT-PCR method. (GBS is an autoimmune disease of a nervous system. In-vivo autoreactive T cells of a patient have a cellular immunologic response to myelin P2 antigens, to form a delayed allergic reaction peripheral nerve demyelination pathological injury. This process is mainly mediated by CD4^+T cells, also named initial Th cells that may be differentiated into Th1 and Th2 after antigenic stimulation. Th1 cytokines (represented by TNF-α and IL-12) mainly enhance a cell mediated immune response, and are inflammatory cytokines; and Th2 cytokines (represented by IL-4 and IL-10) mainly participate in an antibody mediated immune response, and have an immune down-regulation and anti-inflammation effect. In GBS and ENA research, unbalance of Th1/Th2 plays an important role in disease injuries.)
(§7) Data is represented by mean±standard deviation (x±SD). Differences between two groups were compared. When P is less than 0.05, a statistic difference occurs.

[2] = test system: EAN model rats; assay: Test on algesia of ankle joint (pain reaction score) of EAN model rats; assay type: in vivo, Lewis rats; conditions: ankle dorsiflexion, score 0-5
Procedure: as §4
(§8) For each rat in an EAN model group, an inoculum was subcutaneously injected into foot pads of hind limbs on two sides, 200 μL/rat (100 μL per side). […] For the negative control group, isopyknic normal saline was injected. For each group of animals, medicine administration was started from the first day after immunization, for 30 days in total.
Near a peak period of disease attack of EAN model animals, a test on algesia of ankle joints was performed on EAN model animals and adjuvant control animals, and rats in a rest state were forced to bend hind legs towards foot soles (dorsiflexion). For each side, 5 tests were made, at an interval of at least 5 s. For each time of dorsiflexion, if rats screamed or obviously withdrew paws, 1 score was counted. For each side, a total score is 0-5.
(§9) Data is represented by mean±standard deviation (x±SD). For scores of symptoms and scores of algesia, a non-parametric test Mann-Whitney U was used to compare differences between two groups. When P is less than 0.05, a statistic difference occurs.

[3] = test system: EAN model rats; assay: Pre-experimental dose study: clinical score of neurological symptoms of EAN model rats; assay type: in vivo, Lewis rats; conditions: score 0-10
Procedure: Persons skilled in the art learn that, pharmacological effect and dose are in a proportional relationship, i.e., a dose-effect relationship, only within a certain range.
as §8
(§10) The day of molding serves as the 0th day, and after that is 30 days of observation period. Observation date is represented by D plus number, D1, D2 and D3 respectively represent Observation date 1, Observation date 2 and Observation date 3, and subsequent dates are represented in the same way. Rats were weighed once every two days, and clinical symptoms of all experimental animals were scored. Within one week of a peak period (D14-D20) of disease attack of animals, weighing and clinical symptom scoring were performed every day. Score standards are as below: 0, normal; 1, a soft tail; 2, unable to lift a tail; 3, unable to automatically correct a body position; 4, ataxia; 5, mild paralysis of hind limbs; 6, moderate paralysis of hind limbs; 7, severe paralysis of hind limbs; 8, paresis of four limbs; 9, severe paresis of four limbs; and 10, death.
as §9

[4] = test system: TNF-α; assay: mRNA level of TNF-α in sciatic nerve tissue of EAN model rabbits (RT-PCR); assay type: in vivo, big-ear white rabbits; conditions: 14th day after modeling, ginkgolide groups 4.5 mg/kg intragastric 2 times a day, positive control 400 mg/kg·d i.p. 5 days
Procedure: as §1, §2, §3, §4, §5, §6, §7

[5] = test system: IL-4; assay: mRNA level of IL-4 in sciatic nerve tissue of EAN model rabbits (RT-PCR); assay type: in vivo, big-ear white rabbits; conditions: 14th day after modeling, ginkgolide groups 4.5 mg/kg intragastric 2 times a day, positive control 400 mg/kg·d i.p. 5 days
Procedure: as §1, §2, §3, §4, §5, §6, §7

[6] = test system: EAN model rats; assay: Scores of neurological symptoms (clinical score) of EAN model rats, Test Example 1; assay type: in vivo, Lewis rats; design: key: 0 = normal, 5 = mild hind-limb paralysis, 10 = death; conditions: monomers 4.5 mg/kg, combinations 6.0-13.5 mg/kg; for Clinical score D12: D12, intragastric 2 times a day; for Clinical score D14: D14, intragastric 2 times a day; for Clinical score D20: D20, intragastric 2 times a day; for Clinical score D22: D22, intragastric 2 times a day; for Clinical score D24: D24, intragastric 2 times a day; for Clinical score D26: D26, intragastric 2 times a day
Procedure: 20 experimental groups, 10 […] in each group.
as §4, §8, §10, §9

[7] = test system: IL-10; assay: mRNA level of IL-10 in sciatic nerve tissue of EAN model rabbits (RT-PCR); assay type: in vivo, big-ear white rabbits; conditions: 14th day after modeling, ginkgolide groups 4.5 mg/kg intragastric 2 times a day, positive control 400 mg/kg·d i.p. 5 days
Procedure: as §1, §2, §3, §4, §5, §6, §7

Compound | Cytokines IL-12 (mRNA level, sciatic nerve tissue) [1] | Pain reaction score (D18) [2] | Clinical score (D17) ([3]; 2.0 mg/kg) | Clinical score (D17) ([3]; 4.5 mg/kg) | Clinical score (D17) ([3]; 15 mg/kg) | Cytokines TNF-α (mRNA level, sciatic nerve tissue) [4] | Cytokines IL-4 (mRNA level, sciatic nerve tissue) [5] | Clinical score D12 [6] | Clinical score D14 [6] | Clinical score D16 ([6]; D16, intragastric 2 times a day) | Clinical score (D17) ([6]; D17, intragastric 2 times a day) | Clinical score D19 ([6]; D19, intragastric 2 times a day) | Clinical score D20 [6] | Clinical score D22 [6] | Clinical score D24 [6] | Clinical score D26 [6] | Cytokines IL-10 (mRNA level, sciatic nerve tissue) [7]
ginkgolide J | 6.211 ± 0.489 | 1.3 ± 0.67 | 7.10 ± 0.57 | 6.40 ± 0.84*^Δ | 6.30 ± 0.82*^Δ | 4.810 ± 0.070 | 0.551 ± 0.050 | 4.4 ± 0.7 | 5.5 ± 0.5 | 6.5 ± 0.5 | 7.4 ± 0.5 | 6.2 ± 0.6 | 5.6 ± 0.5 | 4.6 ± 0.5 | 4.0 ± 0.7 | 3.2 ± 0.6 | 0.501 ± 0.037
ginkgolide C | 6.009 ± 0.357 | 1.9 ± 0.88 | 6.90 ± 0.88 | 6.10 ± 0.57*^Δ | 6.00 ± 0.67*^Δ | 4.548 ± 0.154 | 0.585 ± 0.053 | 4.4 ± 0.7 | 5.2 ± 0.8 |  |  |  |  | 4.4 ± 0.5 | 3.8 ± 0.8 | 3.1 ± 0.6 | 0.561 ± 0.090
CC1=C2[C@@H](OC1=O)[C@H](O)[C@]13[C@H]4C[C@@H](C(C)(C)C)[C@]15[C@@H](OC(=O)[C@@H]5O)O[C@@]23C(=O)O4 [Ginkgolide K, ginkgolide K] | 6.412 ± 0.169 | 1.2 ± 0.63 | 7.20 ± 0.42 | 6.50 ± 0.85*^Δ | 6.70 ± 0.82*^Δ | 4.739 ± 0.094 | 0.557 ± 0.046 | 4.5 ± 0.7 | 5.6 ± 0.5 |  |  |  | 5.5 ± 0.5 | 4.5 ± 0.5 | 3.9 ± 0.7 | 3.1 ± 0.6 | 0.524 ± 0.026
C[C@@H]1C(=O)O[C@@H]2[C@H]1[C@@]13OC4OC(=O)[C@H](O)C45[C@H](C(C)(C)C)[C@@H](O)C(OC1=O)[C@]53[C@H]2O (stereo partly drawn) [Ginkgolide M, ginkgolide M] | 6.260 ± 0.411 | 1.4 ± 0.52 | 7.10 ± 0.32 | 6.40 ± 0.97*^Δ | 6.50 ± 0.71*^Δ | 4.797 ± 0.147 | 0.558 ± 0.050 | 4.5 ± 0.7 | 5.6 ± 0.5 |  |  |  | 5.5 ± 0.5 | 4.6 ± 0.5 | 4.0 ± 0.7 | 3.2 ± 0.6 | 0.550 ± 0.061
CC(C)(C)[C@]1(O)CC2OC(=O)CC23C(=O)OC2OC(=O)[C@H](O)C231 (stereo partly drawn) [Bilobalide, bilobalide] | 4.087 ± 0.275 | 2.9 ± 0.74 | 5.70 ± 0.67 | 4.80 ± 0.63*^Δ | 4.90 ± 0.88*^Δ | 3.054 ± 0.182 | 0.792 ± 0.065 |  |  |  |  |  |  |  |  |  | 0.783 ± 0.128
C[C@@H]1C(=O)O[C@H]2C[C@@]34[C@H]5C[C@@H](C(C)(C)C)[C@]36[C@@H](OC(=O)[C@@H]6O)O[C@@]4(C(=O)O5)[C@]21O [Ginkgolide A, ginkgolide A] | 5.977 ± 0.141 | 2.0 ± 0.67 | 7.00 ± 0.82 | 6.10 ± 0.74*^Δ | 6.00 ± 1.25*^Δ | 4.693 ± 0.115 | 0.569 ± 0.048 | 4.4 ± 0.5 | 5.3 ± 0.5 |  |  |  |  | 4.4 ± 0.5 | 3.7 ± 0.8 | 3.1 ± 0.6 | 0.584 ± 0.039
CC1C(=O)OC2C(O)C34C5CC(C(C)(C)C)C36C(OC(=O)C6O)OC4(C(=O)O5)C12O (stereo not drawn) [Ginkgolide B, ginkgolide B] | 3.928 ± 0.409 | 3.0 ± 0.67 | 6.10 ± 1.10 | 5.10 ± 0.57*^Δ | 5.20 ± 0.63*^Δ | 2.978 ± 0.102 | 0.769 ± 0.041 |  |  |  |  |  |  |  |  |  | 0.813 ± 0.055
